The results in this text go back to ChEMBL document CHEMBL2385030, “Crystallographic Investigation and Selective Inhibition of Mutant Isocitrate Dehydrogenase” (ACS Med Chem Lett, 2013).

As a reminder, the EC50 is the concentration needed to bring the measured effect to its halfway point. What is called Ki is a dissociation constant, usually derived from enzyme kinetics or from competition with a known ligand.

In assay [1] the test system is WI-38. Kind of assay: Cytotoxicity against human WI38 cells assessed as growth inhibition after 48 hrs by MTS assay. It counts as cell-based. To be noted: WI-38, 48 h. (Formazan colour is commonly taken as a measure of viable cells.)
The target in assay [2] is Isocitrate dehydrogenase [NADP] cytoplasmic (Homo sapiens, UniProt O75874). The assay can be described thus: Inhibition of wild type IDH1 (unknown origin) expressed in Escherichia coli BL21 using […] as substrate incubated for 5 mins prior to substrate addition measured every 30 secs.
Isocitrate dehydrogenase [NADP] cytoplasmic, sequence (O75874 whole entry): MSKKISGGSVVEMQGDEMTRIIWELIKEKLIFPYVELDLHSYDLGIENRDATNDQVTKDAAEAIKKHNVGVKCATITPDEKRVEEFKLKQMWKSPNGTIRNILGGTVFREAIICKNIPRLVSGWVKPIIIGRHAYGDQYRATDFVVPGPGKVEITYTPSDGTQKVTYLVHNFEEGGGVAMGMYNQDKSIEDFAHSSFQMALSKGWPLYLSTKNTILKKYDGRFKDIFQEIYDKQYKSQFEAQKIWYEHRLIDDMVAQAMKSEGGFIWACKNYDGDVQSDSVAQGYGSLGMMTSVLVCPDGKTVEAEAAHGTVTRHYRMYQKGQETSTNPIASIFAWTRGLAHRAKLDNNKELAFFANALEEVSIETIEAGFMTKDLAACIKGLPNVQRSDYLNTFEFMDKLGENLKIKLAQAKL

Take `Cc1cc(Cc2ccccc2)n(O)c(=O)c1`: in assay [1], the EC50 is greater than 50 µM.
On the same count and under the same terms, the figure for `Cc1cc(Cc2ccc(O)cc2)n(O)c(=O)c1` is greater than 50 µM.
Regarding `O=c1cccc(Cc2ccccc2)n1O`, the EC50 in assay [1] was greater than 50 µM.
Same read-out and setting: the figure for `CC(C)c1cc(Cc2ccccc2)n(O)c(=O)c1` is greater than 50 µM.
`Cc1cc(-c2ccccc2)n(O)c(=O)c1` returned an inhibition constant Ki in assay [2] greater than 50 µM.
